Among the data in patent US12351570B2 (MERCK PATENT GMBH, priority 2018, dated 2025) are IC50 values, retold here.

Broadly, the IC50 is the midpoint of a concentration-inhibition curve. Read a high IC50 as a need for much substance.

This assay concerns MDA-MB-231 cells. Kind of assay: Extracellular lactate production inhibition after 4 h, MDA-MB-231. The note with it: Homo sapiens, MDA-MB-231.
`O=C(O)c1ccc(C#Cc2cc(Cl)ccc2NS(=O)(=O)c2ccc(Cl)cc2)cc1` [Compound 269, 4-[5-Chloro-2-(4-chloro-benzenesulfonylamino)-phenylethynyl]-benzoic acid, reference compound] came in with an IC50 of 1000 to 100000 nM.

`O=C(O)c1ccc(C#Cc2ccccc2NS(=O)(=O)c2cccc3cc(Cl)cnc23)cc1` [Compound 270, 4-[2-(3-Chloro-quinoline-8-sulfonyl-amino)-phenylethynyl]-benzoic acid] had an IC50 of 100 to 1000 nM.

Take `O=C(O)c1ccc(C#Cc2ccccc2NS(=O)(=O)c2cccc3cc(Cl)cnc23)cn1` [Compound 271, 5-[2-(3-Chloro-quinoline-8-sulfonyl-amino)-phenylethynyl]-pyridine-2-carboxylic acid]: the IC50 was in the range of 100 to 1000 nM.

`O=C(O)c1ccc(C#Cc2ccccc2NS(=O)(=O)c2cccc3ncc(Cl)cc23)cc1` [Compound 272, 4-[2-(3-Chloro-quinoline-5-sulfonyl-amino)-phenylethynyl]-benzoic acid] came in with an IC50 of 1000 to 100000 nM.

Consider `O=C(O)c1ccc(C#Cc2ccccc2NS(=O)(=O)c2cc(Cl)c(Cl)s2)cc1` [Compound 275, 4-{2-[2-(4,5-dichlorothiophene-2-sulfonamido)phenyl]ethynyl}benzoic acid], for which the IC50 was 1000 to 100000 nM.

In turn, `O=C(O)c1ccc(C#Cc2ccccc2NS(=O)(=O)c2cc3ccccc3s2)cc1` [Compound 276, 4-{2-[2-(1-benzothiophene-2-sulfonamido)phenyl]ethynyl}benzoic acid] returned an IC50 of 1000 to 100000 nM.

`COc1cc(C)c(S(=O)(=O)Nc2ccccc2C#Cc2ccc(C(=O)O)nc2)c(C)c1C` [Compound 277, 5-{2-[2-(4-methoxy-2,3,6-trimethyl-benzenesulfonamido)phenyl]ethynyl}-pyridine-2-carboxylic acid] registered an IC50 of 100 to 1000 nM.

As to `O=C(O)c1ccc(C#Cc2ccccc2NS(=O)(=O)c2cccn3ccnc23)cn1` [Compound 278, 5-[2-(Imidazo[1,2-a]pyridine-8-sulfonyl-amino)-phenylethynyl]-pyridine-2-carboxylic acid], the concentration for half-maximal inhibition (IC50) lay in the range of 1000 to 100000 nM.

Consider `O=C(O)c1ncc(C#Cc2ccccc2NS(=O)(=O)c2cccc3ccccc23)cc1F` [Compound 279, 3-fluoro-5-{2-[2-(naphthalene-1-sulfon-amido)phenyl]ethynyl}pyridine-2-carboxylic acid], for which the concentration for half-maximal inhibition (IC50) fell in the range of 1000 to 100000 nM.

On to `O=C(O)c1ccc(C#Cc2cc(Cl)ccc2NS(=O)(=O)c2ccc(Cl)cc2)cn1` [Compound 280, 5-{2-[5-chloro-2-(4-chlorobenzene-sulfonamido)phenyl]ethynyl}pyridine-2-carboxylic acid], for which the IC50 lay within 1000 to 100000 nM.

Regarding `O=C(O)c1ccc(C#Cc2ccccc2NS(=O)(=O)c2cc3cc(Cl)ccc3s2)cc1` [Compound 281, 4-{2-[2-(5-chloro-1-benzothiophene-2-sulfonamido)phenyl]ethynyl}benzoic acid], the IC50 fell in the range of 100 to 1000 nM.

The compound `CSc1nccc(-c2ccc(S(=O)(=O)Nc3ccccc3C#Cc3ccc(C(=O)O)cc3)s2)n1` [Compound 282, 4-[2-(2-{5-[2-(methylsulfanyl)pyrimidin-4-yl]thiophene-2-sulfonamido}phenyl)-ethynyl]benzoic acid] returned an IC50 of 1000 to 100000 nM.

`O=C(O)c1ncc(C#Cc2ccccc2NS(=O)(=O)c2cccc3ccccc23)cc1C(F)(F)F` [Compound 283, 5-{2-[2-(naphthalene-1-sulfon-amido)phenyl]ethynyl}-3-(trifluoro-methyl)pyridine-2-carboxylic acid] displayed a 50% inhibitory concentration (IC50) of 1000 to 100000 nM.

Regarding `CCOc1ccc(S(=O)(=O)Nc2ccccc2C#Cc2ccc(C(=O)O)nc2)c2ccccc12` [Compound 284, 5-{2-[2-(4-ethoxynaphthalene-1-sulfonamido)phenyl]ethynyl}pyridine-2-carboxylic acid], the half-maximal inhibitory concentration (IC50) is 10 to 100 nM.

Compound `O=C(O)c1ccc(C#Cc2ccc(F)cc2NS(=O)(=O)c2cccc3ccccc23)cn1` [Compound 285, 5-{2-[4-fluoro-2-(naphthalene-1-sulfonamido)phenyl]ethynyl}pyridine-2-carboxylic acid] registered a concentration for half-maximal inhibition (IC50) of 100 to 1000 nM.

The compound `O=C(O)c1ccc(C#Cc2ccccc2NS(=O)(=O)c2ccc3oc4ccccc4c3c2)cn1` [Compound 286, 5-[2-(2-{8-oxatricyclo[7.4.0.0^2,7]trideca-1(9),2(7),3,5,10,12-hexaene-4-sulfonamido}phenyl)ethynyl]pyridine-2-carboxylic acid] came in with an IC50 of 100 to 1000 nM.

Take `COc1ccc(S(=O)(=O)Nc2ccccc2C#Cc2ccc(C(=O)O)nc2)c(Cl)c1` [Compound 287, 5-{2-[2-(2-chloro-4-methoxybenzene-sulfonamido)phenyl]ethynyl}pyridine-2-carboxylic acid]: the IC50 lay within 1000 to 100000 nM.

Regarding `Cc1cc(S(=O)(=O)Nc2ccccc2C#Cc2ccc(C(=O)O)nc2)c2cc(C)ncc2c1` [Compound 288, 5-{2-[2-(3,7-dimethylisoquinoline-5-sulfonamido)phenyl]ethynyl}pyridine-2-carboxylic acid], the IC50 fell in the range of 1000 to 100000 nM.

`O=C(O)c1ccc(C#Cc2ccccc2NS(=O)(=O)c2cccc3c(Cl)cccc23)cn1` [Compound 289, 5-{2-[2-(5-chloronaphthalene-1-sulfonamido)phenyl]ethynyl}pyridine-2-carboxylic acid] had an IC50 of 100 to 1000 nM.

`Cc1ccc2nsnc2c1S(=O)(=O)Nc1ccccc1C#Cc1ccc(C(=O)O)nc1` [Compound 290, 5-{2-[2-(5-methyl-2,1,3-benzothia-diazole-4-sulfonamido)phenyl]-ethynyl}pyridine-2-carboxylic acid] had an IC50 of 1000 to 100000 nM.

Take `O=C(O)c1ccc(C#Cc2ccccc2NS(=O)(=O)c2ccc(-c3ccccc3)cc2)cn1` [Compound 291, 5-[2-(2-{[1,1′-biphenyl]-4-sulfonamido}phenyl)ethynyl]pyridine-2-carboxylic acid]: the 50% inhibitory concentration (IC50) was 10 to 100 nM.

Consider `O=C(O)c1ccc(C#Cc2ccccc2NS(=O)(=O)c2cccc3nsnc23)cn1` [Compound 292, 5-{2-[2-(2,1,3-benzothiadiazole-4-sulfonamido)phenyl]ethynyl}pyridine-2-carboxylic acid], for which the IC50 lay in the range of 1000 to 100000 nM.

In turn, `Cc1ccccc1-c1ccc(S(=O)(=O)Nc2ccccc2C#Cc2ccc(C(=O)O)nc2)cc1` [Compound 293, 5-[2-(2-{2′-methyl-[1,1′-biphenyl]-4-sulfonamido}phenyl)ethynyl]pyridine-2-carboxylic acid] returned a half-inhibitory concentration (IC50) of 100 to 1000 nM.

`O=C(O)c1ccc(C#Cc2ccccc2NS(=O)(=O)c2cc(F)cc3cccnc23)cn1` [Compound 294, 5-{2-[2-(6-fluoroquinoline-8-sulfonamido)phenyl]ethynyl}pyridine-2-carboxylic acid] returned a 50% inhibitory concentration (IC50) of 100 to 1000 nM.

`CC(C)Oc1ccc(S(=O)(=O)Nc2ccccc2C#Cc2ccc(C(=O)O)nc2)c2ccccc12` [Compound 295, 5-(2-{2-[4-(propan-2-yloxy)naphthalene-1-sulfonamido]phenyl}ethynyl)pyridine-2-carboxylic acid] gave a 50% inhibitory concentration (IC50) of 10 to 100 nM.

`Cn1ccc2cccc(S(=O)(=O)Nc3ccccc3C#Cc3ccc(C(=O)O)nc3)c21` [Compound 296, 5-{2-[2-(1-methyl-1H-indole-7-sulfonamido)phenyl]ethynyl}pyridine-2-carboxylic acid] returned an IC50 of 1000 to 100000 nM.

Consider `O=C(O)c1ccc(C#Cc2ccccc2NS(=O)(=O)c2ccc3occc3c2)cn1` [Compound 297, 5-{2-[2-(1-benzofuran-5-sulfonamido)phenyl]ethynyl}pyridine-2-carboxylic acid], for which the IC50 was 1000 to 100000 nM.

As to `O=C(O)c1ccc(C#Cc2ccccc2NS(=O)(=O)c2cccc3c(Cl)c(Cl)cnc23)cn1` [Compound 298, 5-{2-[2-(3,4-dichloroquinoline-8-sulfonamido)phenyl]ethynyl}pyridine-2-carboxylic acid], the concentration for half-maximal inhibition (IC50) lay within 10 to 100 nM.

`COc1ccc(S(=O)(=O)Nc2ccccc2C#Cc2ccc(C(=O)O)nc2)c(OC)c1` [Compound 299, 5-{2-[2-(2,4-dimethoxybenzenesulfon-amido)phenyl]ethynyl}pyridine-2-carboxylic acid] yielded a concentration for half-maximal inhibition (IC50) of 1000 to 100000 nM.

As for `CCOc1ccc(S(=O)(=O)Nc2ccccc2C#Cc2ccc(C(=O)O)nc2)cc1NC(C)=O` [Compound 300, 5-{2-[2-(3-acetamido-4-ethoxy-benzenesulfonamido)phenyl]ethynyl}-pyridine-2-carboxylic acid], the half-inhibitory concentration (IC50) lay in the range of 100 to 1000 nM.

Regarding `O=C(O)c1ccc(C#Cc2ccccc2NS(=O)(=O)c2ccc3c(c2)oc2ccccc23)cn1` [Compound 301, 5-[2-(2-{8-oxatricyclo[7.4.0.0^2,7]trideca-1(9),2(7),3,5,10,12-hexaene-5-sulfonamido}phenyl)ethynyl]pyridine-2-carboxylic acid], the IC50 fell in the range of 100 to 1000 nM.

`O=C(O)c1ccc(C#Cc2ccccc2NS(=O)(=O)c2c(Cl)ccc3c(Cl)ccnc23)cn1` [Compound 302, 5-{2-[2-(4,7-dichloroquinoline-8-sulfonamido)phenyl]ethynyl}pyridine-2-carboxylic acid] showed a half-maximal inhibitory concentration (IC50) of 10 to 100 nM.

For the compound `Cn1ccc2c(S(=O)(=O)Nc3ccccc3C#Cc3ccc(C(=O)O)nc3)cccc21` [Compound 303, 5-{2-[2-(1-methyl-1H-indole-4-sulfonamido)phenyl]ethynyl}pyridine-2-carboxylic acid], the IC50 fell in the range of 100 to 1000 nM.

As to `O=C(O)c1ccc(C#Cc2ccccc2NS(=O)(=O)c2ccc(Cl)s2)cn1` [Compound 304, 5-{2-[2-(5-chlorothiophene-2-sulfonamido)phenyl]ethynyl}pyridine-2-carboxylic acid], the IC50 was 1000 to 100000 nM.

As for `Cc1c(C)c(S(=O)(=O)Nc2ccccc2C#Cc2ccc(C(=O)O)nc2)c2ncccc2c1C` [Compound 305, 5-{2-[2-(5,6,7-trimethylquinoline-8-sulfonamido)phenyl]ethynyl}pyridine-2-carboxylic acid], the IC50 was 10 to 100 nM.

For the compound `O=C(O)c1ccc(C#Cc2ccccc2NS(=O)(=O)c2c(Cl)cc(Cl)c3cccnc23)cn1` [Compound 306, 5-{2-[2-(5,7-dichloroquinoline-8-sulfonamido)phenyl]ethynyl}pyridine-2-carboxylic acid], the IC50 was 10 to 100 nM.

On to `Cc1cc(C#Cc2cc(F)ccc2NS(=O)(=O)c2c(C)ccc3cccnc23)cnc1C(=O)O` [Compound 307, 5-{2-[5-fluoro-2-(7-methylquinoline-8-sulfonamido)phenyl]ethynyl}-3-methylpyridine-2-carboxylic acid], for which the 50% inhibitory concentration (IC50) was 10 to 100 nM.
